Results as given in PMC10584170, “Machine learning-based phenotypic imaging to characterise the targetable biology of Plasmodium falciparum male gametocytes for the development of transmission-blocking antimalarials” (PLOS Pathogens, 2023).
Like-named read-outs stand apart in the source and are kept apart here.

Assays:
[1] = test system: P. falciparum male gametocytes; experiment: P. falciparum Dual Gamete Formation Assay (PfDGFA), male readout (exflagellation); type: cell-based, Plasmodium falciparum NF54; details: for Selectivity Ratio M: HepG2 Tox50 versus male IC50; for inhibition at 2 µM / Average inhibition male (%) / % inhibition male (individual replicates) R1 / % inhibition male (individual replicates) R4 / % inhibition male (individual replicates) R3: 24h preincubation with gametocytes; for HitlevelM: number of replicates with >50% inhibition in the male readout
Outline: (§1)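 Male and female gamete formation were quantified by microscopy image analysis following 24 h incubation of mature NF54 gametocytes with compound and activation at 28°C with xanthurenic acid.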

[2] = test system: P. falciparum female gametocytes; experiment: P. falciparum Dual Gamete Formation Assay (PfDGFA), female readout (Pfs25-positive female gametes); type: cell-based, Plasmodium falciparum NF54; details: for Selectivity ratio F: HepG2 Tox50 versus female IC50; for inhibition at 2 µM / Average inhibition female (%) / % inhibition female (individual replicates) R1 / % inhibition female (individual replicates) R3 / % inhibition female (individual replicates) R4: 24h preincubation with gametocytes; for IC50: PfDGFA, 24 h incubation with gametocytes before induction, female gamete readout, read-out: Female IC50; for HitlevelF: number of replicates with >50% inhibition in the female readout
Outline: as §1

HepG2 cells = experiment: HepG2 cytotoxicity counter-screen; details: for Tox50: cytotoxic activity against HepG2 cells; for Mean TOX: mean of the HepG2 TOX50 values
[3] = Plasmodium falciparum, 2µM, average of replicates, read-out: Average inhibition male (%)
[4] = Plasmodium falciparum, 2µM, replicate R1, read-out: % inhibition male (individual replicates) R1
[5] = Plasmodium falciparum, 2µM, replicate R2, read-out: % inhibition male (individual replicates) R2
[6] = Plasmodium falciparum, 2µM, replicate R4, read-out: % inhibition male (individual replicates) R4
[7] = Plasmodium falciparum, PfDGFA, 24 h incubation with gametocytes before induction, exflagellation readout, read-out: Male IC50
[8] = Plasmodium falciparum, 2µM, average of replicates, read-out: Average inhibition female (%)
[9] = Plasmodium falciparum, 2µM, replicate R1, read-out: % inhibition female (individual replicates) R1
[10] = Plasmodium falciparum, 2µM, replicate R2, read-out: % inhibition female (individual replicates) R2
[11] = Plasmodium falciparum, 2µM, replicate R3, read-out: % inhibition female (individual replicates) R3
[12] = Plasmodium falciparum, 2µM, replicate R4, read-out: % inhibition female (individual replicates) R4
[13] = PfDGFA, 24 h incubation with gametocytes before induction, exflagellation readout, read-out: Male IC50
[14] = PfDGFA at 2µM, average of replicates

Row | Structure (SMILES) | Selectivity Ratio M [1] | inhibition at 2 µM [1, 3] [%] | inhibition at 2 µM [1, 4] [%] | inhibition at 2 µM [1, 5] [%] | inhibition at 2 µM [1, 6] [%] | IC50 [1, 7] [nM] | Selectivity ratio F [2] | inhibition at 2 µM [2, 8] [%] | inhibition at 2 µM [2, 9] [%] | inhibition at 2 µM [2, 10] [%] | inhibition at 2 µM [2, 11] [%] | inhibition at 2 µM [2, 12] [%] | IC50 ([2]; Plasmodium falciparum) [nM] | Tox50 (HepG2 cells) [µM] | IC50 [1, 13] [nM] | IC50 [2] [nM] | further results
1 | O=C1SC(=Cc2ccc(O)c(O)c2)C(=O)N1c1ccccc1 [TCMDC-123491] | 21.44 | 96.8 | 96 | 93.5 | 98.9 | 1720 | 4.36 | 28.5 | 24.6 | 17.5 | 26.8 | 45.3 | 8430 | 36.79 | – | – | Cytotox ratio Pf Male ([1]; Mean TOX HepG2 over DGFA IC50 MALE, GREEN = >10-fold, RED = <10-fold): 21.4; inhibition at 2 µM ([1]; Plasmodium falciparum, 2µM, replicate R3, read-out: % inhibition male (individual replicates) R3): 98.6%; Cytotox ratio Pf Female ([2]; Mean TOX HepG2 over DGFA IC50 FEM, GREEN = >10-fold, RED = <10-fold): 4.4; Mean TOX (HepG2 cells): 36.79 µM
2 | Cl.Cl.c1ccc2c(NCCCCCCNc3c4ccccc4nc4ccccc34)c3ccccc3nc2c1 [TCMDC-124285] | 3.7 | – | – | – | – | – | 1.95 | – | – | – | – | – | – | 6.2 | 1680 | 3180 | Average inhibition male (%) ([1]; 2µM, average of replicates): 93.2%; % inhibition male (individual replicates) R1 ([1]; 2µM, replicate R1): 96.3%; % inhibition male (individual replicates) R4 ([1]; 2µM, replicate R4): 88.4%; Average inhibition female (%) ([2]; 2µM, average of replicates): 50.4%; % inhibition female (individual replicates) R1 ([2]; 2µM, replicate R1): 48.2%; % inhibition female (individual replicates) R3 ([2]; 2µM, replicate R3): 44.8%; % inhibition female (individual replicates) R4 ([2]; 2µM, replicate R4): 50.1%
3 | CNC(=O)c1ccccc1Nc1nc(Nc2ccc(N3CCN(C)CC3)nc2)ncc1C.Cl [TCMDC-134123] | 14.02 | 96.1 | 93.9 | 95.8 | 98.7 | 250 | 0.34 | 0.025 | -2.2 | -9.9 | 9.7 | 2.5 | > 10000 | 3.44 | – | – | –
4 | O=C(NC1CCN(Cc2ccccc2)CC1)c1cc(C(=O)NC2CCN(Cc3ccccc3)CC2)cc(C(=O)NC2CCN(Cc3ccccc3)CC2)c1 [TC20] | – | – | – | – | – | – | – | – | – | – | – | – | – | – | – | – | Cytotox ratio Pf Male [1]: 13.0; IC50 ([1]; this study, read-out: Pf DGFA IC50 MALE): 7710 nM; Cytotox ratio Pf Female [2]: 10.0; DGFA Tox50 HepG2 (HepG2 cells; HepG2 value reported with the DGFA screen): 100 µM; Mean TOX (HepG2 cells): 100.00 µM
5 | COc1cc(CNCCCCCCNCc2cc(OC)c3ccccc3c2OC)c(OC)c2ccccc12.CS(=O)(=O)O [TCMDC-137502] | 3.09 | – | – | – | – | – | 1.24 | – | – | – | – | – | – | 3.76 | 1210 | 3030 | Average inhibition male (%) [1, 14]: 85.1%; % inhibition male (individual replicates) R1 ([1]; PfDGFA at 2µM, replicate R1): 95.4%; % inhibition male (individual replicates) R3 ([1]; PfDGFA at 2µM, replicate R3): 87.5%; % inhibition male (individual replicates) R4 ([1]; PfDGFA at 2µM, replicate R4): 90.2%; HitlevelM ([1]; 2µM): 4; Average inhibition female (%) [2, 14]: 71.8%; % inhibition female (individual replicates) R1 ([2]; PfDGFA at 2µM, replicate R1): 79.7%; % inhibition female (individual replicates) R3 ([2]; PfDGFA at 2µM, replicate R3): 78.6%; % inhibition female (individual replicates) R4 ([2]; PfDGFA at 2µM, replicate R4): 84.0%; HitlevelF ([2]; 2µM): 3
6 | CCN(CC)CCN(Cc1ccc(-c2ccc(C(F)(F)F)cc2)cc1)C(=O)Cn1cc(Cc2cnn(C)c2)c(=O)nc1/C=C/c1cccc(F)c1F.O=C(O)C(O)C(O)C(=O)O [TCMDC-140964] | 20.63 | 99.3 | 98.8 | 97.8 | 101 | 630 | 3.16 | 36.2 | 34 | 38.6 | 28.7 | 43.5 | 4100 | 12.97 | – | – | –
7 | Nc1nc(N)c2c(ccc3c2ccn3Cc2ccc(-c3ccccc3)cc2)n1 [TCMDC-137813] | 0.97 | – | – | – | – | – | 0.44 | – | – | – | – | – | – | 0.46 | 470 | 1030 | Average inhibition male (%) [1, 14]: 70.1%; % inhibition male (individual replicates) R1 ([1]; PfDGFA at 2µM, replicate R1): 91.2%; % inhibition male (individual replicates) R3 ([1]; PfDGFA at 2µM, replicate R3): 64.2%; % inhibition male (individual replicates) R4 ([1]; PfDGFA at 2µM, replicate R4): 76.3%; HitlevelM ([1]; 2µM): 3; Average inhibition female (%) [2, 14]: 90.5%; % inhibition female (individual replicates) R1 ([2]; PfDGFA at 2µM, replicate R1): 93.6%; % inhibition female (individual replicates) R3 ([2]; PfDGFA at 2µM, replicate R3): 92.9%; % inhibition female (individual replicates) R4 ([2]; PfDGFA at 2µM, replicate R4): 90.8%; HitlevelF ([2]; 2µM): 4
